Where “and” joins values, the source holds several entries; their conditions need not be identical. Identical values can stand only once.
What was measured:
[1] = Stability of analytes in spiked saliva, freeze–thaw test at −21 °C; type: in vitro ADME, human; settings: freeze–thaw cycles at −21 °C
Procedure: The stability of the analytes was tested for three concentrations (low QC, medium QC, and high QC). The stability of the analytes was determined both in the matrix during storage at 8 °C and in a freeze–thaw test, during which spiked saliva samples were stored at −21 °C. For each concentration of carbamazepine and metabolite, three 800 μL saliva samples were prepared in plastic tubes, spiked with an appropriate volume of analytes, and mixed. Then, 200 μL of saliva was taken from each sample, IS added, extracted, and chromatographed according to the procedures described in Section 2.4 and Section 2.5. The remainder of the sample was placed back in the refrigerator or frozen and analyzed in the following days.
(§1) The compounds whose concentration decreased by less than 15% under the given storage conditions were considered to be stable.

[2] = Carbamazepine and carbamazepine-10,11 epoxide concentrations in saliva of patients treated with carbamazepine (UHPLC-DAD after deproteinization); type: in vivo, human
Procedure: The chromatographic analysis was performed with a Nexer XR UHPLC (Ultra High Performance Liquid Chromatography) liquid chromatograph (Schimadzu, Kyoto, Japan), equipped with a SPD-M30A UV-Vis detector with a diode array and a highly sensitive measuring cell SPD-M30A (85 mm), CBM-20 Alite control system, LC-30AD pump, SIL-30AC autosampler, and CTO-20AC thermostat (Shimadzu, Kyoto, Japan). The compounds were separated using a Luna Omega 1.6 µm Polar C18 (LC Column 50 × 2.1 mm ID) with pre-columns (UHPLC Fully Porous Polar C18, 2.1 mm ID). The compounds were eluted from the column at 35 °C with a mobile phase consisting of water with added formic acid and triethylamine (TEA) (solvent A, pH 4.2) and acetonitrile (solvent B) at a flow of 1 mL/min.
The saliva samples were thawed, centrifuged, and then 200 μL of test material was collected and placed in plastic tubes. A 1% formic acid solution in acetonitrile (600 µL) was added to each of them, mixed with a vortex, shaken (laboratory shaker 358 S, Elpin, Poland) for about 10 min, and centrifuged for 5 min at 8000 rpm. The supernatant was transferred to glass tubes and evaporated. The dry residue was dissolved in 100 μL of an acetonitrile/water mixture with formic acid (1:10), and 10 μL was injected into the chromatographic column.
The usefulness of the method was determined by examining the saliva samples of 20 patients treated with carbamazepine preparations. They were collected from patients of the Nervous and Mentally Ill Hospital in Starogard Gdański (Poland). The study protocol was approved by the ethical committee of the Medical University of Gdansk, Poland (NKBBN/139/2016). Saliva was taken using Salivettes about 2 h after the administration of carbamazepine. The Salivette was placed in a test tube and centrifuged, and the obtained filtrate was frozen at −21 °C and stored until analysis. To perform the analyses, the samples were thawed, centrifuged, and 200 μL of liquid taken. Then, 50 μL of IS solution (10 μg/mL) was added and the procedure described in Section 2.4 was followed.

[3] = Stability of extracts kept in the autosampler at 15 °C for 72 h; type: physicochemical; settings: extracts in autosampler at 15 °C for 72 h
Procedure: The stability of the analytes was also determined during their storage in an autosampler at 15 °C for 72 h. For this purpose, five samples of each concentration were extracted and chromatographed. After 72 h, the samples were then chromatographed again alongside a freshly prepared calibration curve.
as §1

[4] = Stability of analytes in spiked saliva stored in a fridge at 8 °C; type: in vitro ADME, human; settings: for stability under the tested conditions: saliva at 8 °C, freeze–thaw at −21 °C, autosampler 15 °C 72 h, 30, 2000, 3750 ng/mL, stable = decrease less than 15%; for Difference (%): spiked saliva stored in a fridge at 8 °C
Procedure: The stability of the analytes was tested for three concentrations (low QC, medium QC, and high QC). The stability of the analytes was determined both in the matrix during storage at 8 °C and in a freeze–thaw test, during which spiked saliva samples were stored at −21 °C. […] The remainder of the sample was placed back in the refrigerator or frozen and analyzed in the following days. The compounds whose concentration decreased by less than 15% under the given storage conditions were considered to be stable.

[5] = design: method as in PMID 29403934, PMID 23288091, PMID 29957667; settings: cited from earlier work

SMILES	Difference (%) ([1]; 30 ng/mL)	Difference (%) ([1]; 2000 ng/mL)	Difference (%) ([1]; 3750 ng/mL)	mean concentration in saliva ([2]; female, human, in vivo) [ng/mL]	determined concentrations in patient saliva, range ([2]; human, in vivo) [ng/mL]	mean concentration in saliva ([2]; male, human, in vivo) [ng/mL]	Difference (%) ([3]; 30 ng/mL)	Difference (%) ([3]; 2000 ng/mL)	Difference (%) ([3]; 3750 ng/mL)	highest concentration reduction ([4]; 30 ng/mL in saliva samples stored at 8 °C) [%]	stability under the tested conditions [4]	Difference (%) ([4]; 30 ng/mL)	Difference (%) ([4]; 2000 ng/mL)	Difference (%) ([4]; 3750 ng/mL)	mean concentration in saliva ([2]; female patients) [ng/mL]	mean concentration in saliva ([2]; male patients) [ng/mL]	Carbamazepine Concentration ([2]; saliva of individual patients, about 2 h after administration of carbamazepine, dose 400-1800 mg/day)	half-life ([5]; after a single administration) [h]	excreted in the urine [5] [%]
NC(=O)N1c2ccccc2C2OC2c2ccccc21 (centres unmarked) [Carbamazepine-10,11 epoxide, carbamazepine-10,11 epoxide]	−2.45	−1.92	−0.48	249	120 to 664	299	−3.64	−2.3	0.38	6	stable	−6.23	−3.56	−2.75					
NC(=O)N1c2ccccc2C=Cc2ccccc21 [Carbamazepine, carbamazepine]	−2.25	−2.16	−1.44				−0.30	−1.12	−1.72		stable	−3.91	−2.53	−1.93	967	1882	344.7 ng/mL and 690.7 ng/mL and 1285.1 ng/mL and 464.0 ng/mL and 282.2 ng/mL and 472.9 ng/mL and 2456.8 ng/mL and 1668.1 ng/mL and 613.5 ng/mL and 784.3 ng/mL and 1119.9 ng/mL and 607.6 ng/mL and 1198.2 ng/mL and 1192.3 ng/mL and 1817.8 ng/mL and 4891.0 ng/mL and 4839.8 ng/mL and 1165.7 ng/mL and 262.2 ng/mL and 2334.2 ng/mL	36	72

— paper PMC7230990, “Deproteinization as a Rapid Method of Saliva Purification for the Determination of Carbamazepine and Carbamazepine-10,11 Epoxide” (Journal of Clinical Medicine, 2020)
